Marks after values point to notes of the source that are not given here.
Assays:
Assay type in all cases: in vivo, Sprague-Dawley rats
[1] = tested on: osteopenic ovariectomized rats; assay: Longitudinal pQCT of proximal tibial metaphysis; conditions: OVX rats, FIG. 1
Description: (§1) The metaphysis of proximal tibiae were scanned longitudinally from baseline, using a 960A pQCT loaded with Dichte software version 5.2 (Norland/Stratec, Ft. Atkinson, Wis.), using the technique described by Sato et al., —1995, JPET 272:1252-1259; Sato 1995, Bone 17:157S-162S). Volumetric bone mineral density (BMD, mg/cm3), cross-sectional area (X-Area), voxel number, and mineral content (BMC, mg) were quantitated for the whole cross-section of the metaphysis. Sites of excised bones were analyzed at higher resolution, using a micro-CT (Stratec). Specifically, distal femora (below the condyles, see Sato et al. 1995) and L-3 vertebra (mid-cross section, Helterbrand et al., 1997, Bone 21:401-409) were analyzed using voxel dimensions of 50 ×50×1000 μm and 70×70×1000 μm, respectively.
(§2) In a second study, virgin Sprague-Dawley rats were bilaterally ovariectomized (except for the sham-operated group), the ovariectomized animals randomized, and allowed to lose bone for one month prior to treatment in the manner described above. The animal groups, each containing 7-8 animals, included sham-operated animals (SHAM); bilaterally ovariectomized animals (OVX); bilaterally ovariectomized animals treated with 0.01, 0.3 or 1 mg/kg/day of compound 1a, respectively, for three months; bilaterally ovariectomized animals treated subcutaneously with PTH(1-34) at a dose of 10 μg/kg/day for three months; bilaterally ovariectomized animals treated subcutaneously with PTH(1-34) at a dose of 10 μg/kg/day and orally with compound 1a at a dose of 0.3 mg/kg/day, both compounds administered for three months; bilaterally ovariectomized animals treated subcutaneously with PTH(1-34) at a dose of 10 μg/kg/day for forty-five days followed by gavage administration of vehicle for forty-five days; bilaterally ovariectomized animals treated subcutaneously with PTH(1-34) at a dose of 10 μg/kg/day for forty-five days followed by oral administration of only compound 1a at a dose of 0.3 mg/kg/day for forty-five days; and bilaterally ovariectomized animals treated with 17α-ethynyl estradiol administered orally at a dose of 0.1 mg/kg/day.
In the second study, the proximal tibial metaphysis was scanned longitudinally by pQCT for rats from baseline.
Treatment, as indicated, was initiated after 1 month postovariectomy and continued for the following 3 months. Specifically, administration of compound 1a alone(closed triangles), PTH (1-34) alone (open triangles), in combination (closed squares), or in sequence (closed diamonds) were compared to OVX (open circles), Sham (closed circles), and estrogen (EE2, open diamonds) controls.

[2] = tested on: osteopenic rats; assay: Micro-CT of L-3 vertebra; conditions: continuous dosing, 1a 0.01-1 mg/kg, 17α-ethynyl estradiol 0.1 mg/kg, PTH (1-34), 1a 0.3 mg/kg with PTH (1-34), FIG. 3
Description: as §1
In a second study, virgin Sprague-Dawley rats were bilaterally ovariectomized (except for the sham-operated group), the ovariectomized animals randomized, and allowed to lose bone for one month prior to treatment in the manner described above. […]

[3] = tested on: osteopenic ovariectomized rats; assay: Static and dynamic histomorphometry of L-1 vertebra; conditions: OVX rats; for BFR/BS (bone formation rate) / BFR/TV (bone formation rate) / BV/TV (cancellous bone volume) / MAR (mineral apposition rate) / MS/BS (mineralizing surface) / Tb.N (trabecular number) / Tb.Sp (trabecular separation) / Tb.Th (trabecular thickness): L-1 vertebra, mean ± SEM; for BV/TV, trabecular thickness, trabecular number of L-1 vertebra (in words): second study; for MAR of L-1 vertebra (in words): compound 1a 0.01-1 mg/kg, EE2
Description: Oral administration was by gavage in a vehicle comprising 1 mL/kg of body weight of a 20% aqueous solution of hydroxypropyl-β-cyclodextrin. Compound 1a was administered by gavage in a vehicle of 1 mL/kg of body weight of a 20% aqueous solution of cyclodextrin. The estrogen-treated control animals were administered 0.1 mg/kg/day 17α-ethynyl estradiol by gavage.
Subcutaneous administration of PTH(1-34) was by injection of an acidified saline vehicle (0.001 N HCl and 2% heated-inactivated rat serum in physiological saline (Butler Co., Columbus, Ohio, USA).
For histomorphometry, L-1 vertebra were trimmed, using a low-speed diamond saw (Buehler Ltd., Lake Bluff, Ill.) and fixed in 70% ethanol. Specimens were stained for 4 days in Villanueva osteochrome bone stain (Polysciences Inc., Warrington, Pa.), destained, dehydrated in a graded series of alcohols, and defatted in acetone. L-1 vertebra were then infiltrated with methyl methacrylate (as described by Schenk et al. 1984) and embedded in a 75 ml: 19 ml: 2.5 g mixture of methyl methacrylate: dibutyl phthalate: benzoyl peroxide (Kodak, Rochester, N.Y.) and polymerized at room temperature. Longitudinal sections (4 and 8 μm) were cut on a Reichert-Jung 2065 microtome (Magee Scientific Inc., Dexter, Mich.). The 4 μm sections were stained with 6% silver nitrate (Von Kossa stain) before coverslipping; the 8 μm thick sections were mounted unstained for dynamic measurements. Sections were glued onto slides dipped in 0.5% gelatin, dried overnight, and coverslipped with Eukitt.
Histomorphometric measurements were made using an Optiphot-2 fluorescence microscope (Nikon, Melville, N.Y.) and a semi-automatic digitizing system (SummaSketch III, Summagraphics Co., Seymour, Conn.; KSS Image Analysis, KSS Scientific Consultants, Magna Utah) coupled to a PowerPC 7100/66 (Apple Computer, Cupertino, Calif.), using the image capture functions of NIH Image 1.59 (NIH, Bethesda, Md.). For L-1, the entire marrow region within the cortical shell was measured to derive trabecular bone parameters. Specifically, measurements were made of cancellous bone volume (BV/TV, %), trabecular thickness (Tb.Th, μm), number (Tb.N, #/mm) and separation (Tb.Sp, μm), mineralizing surface, mineral apposition rate, and bone formation rate, as previously described (Frost 1983; Jee et al. 1985; Parfitt et al., 1987).
as §2

[4] = 3 months: PTH (1-34) 10 μg/kg/day s.c., PTH + 1a 0.3 mg/kg/day oral, EE2 0.1 mg/kg/day oral
[5] = PTH (1-34) 10 μg/kg/day s.c. 45 days, then vehicle or 1a 0.3 mg/kg/day oral 45 days
[6] = treated continuously 3 months (90 days), at termination, 1a 0.01, 0.3, 1.0 mg/kg, EE2 0.1 mg/kg, PTH (1-34) 10 μg/kg
[7] = Cmpd 1a 0.01 mg/kg/day oral, 3 months
[8] = Cmpd 1a 0.3 mg/kg/day oral, 3 months
[9] = Cmpd 1a 1 mg/kg/day oral, 3 months

With “PTH: N-terminal 1-34 fragment of human parathyroid hormone, hPTH(1-34, Sequence ID No. 3); PTH/vehicle = 45 days PTH then vehicle” the “volumetric BMD of proximal tibial metaphysis (pQCT)” value (“volumetric BMD” below) ([1]; PTH (1-34) 45 days then discontinued or switched to compound 1a, at termination) was “BMD decreased to significantly below Sham”, the “volumetric BMD” value ([1]; after PTH (1-34) for 45 days) was “regained BMD to Sham levels” and the “spinal BMD or BMC of L-3 vertebra (micro-CT)” value (from here on “spinal BMD or BMC”) [2] was “improved BMD to significantly above OVX”. The “BFR/BS (bone formation rate)” value [3, 4] was 25.1 ± 5^s,o μ/d × 100, the “BFR/TV (bone formation rate)” value [3, 4] was 94.5 ± 29.7^s.o %/y and the “BV/TV (cancellous bone volume)” value [3, 4] was 38.9 ± 9^o %. The “MAR (mineral apposition rate)” value [3, 4] was 1.0 ± .11^s,o μ/d, the “MS/BS (mineralizing surface)” value [3, 4] was 24.82 ± 2.62^s,o % and the “Tb.N (trabecular number)” value [3, 4] was 6.07 ± .86^s #/mm. For the same compound, the “Tb.Sp (trabecular separation)” value [3, 4] was 104.1 ± 29^o μ, the “Tb.Th (trabecular thickness)” value [3, 4] was 63.8 ± 11^s,o μ and the “BFR/BS (bone formation rate)” value [3, 5] was 17.68 ± 5.9^s μ/d × 100. For the same compound, the “BFR/TV (bone formation rate)” value [3, 5] was 55.17 ± 20.3^s %/y, the “BV/TV (cancellous bone volume)” value [3, 5] was 20.1 ± 3.9^s % and the “MAR (mineral apposition rate)” value [3, 5] was 0.89 ± .09^s,o μ/d. The “MS/BS (mineralizing surface)” value [3, 5] was 19.62 ± 4.88^s %, the “Tb.N (trabecular number)” value [3, 5] was 5.16 ± .98^s #/mm and the “Tb.Sp (trabecular separation)” value [3, 5] was 160 ± 32^s μ. For the same compound, the “Tb.Th (trabecular thickness)” value [3, 5] was 39.4 ± 7^s μ, the “dynamic parameters MS/BS, MAR, BFR/BS, BFR/TV of L-1 vertebra (in words)” value (“dynamic parameters MS/BS, MAR, BFR/BS” below) ([3]; PTH (1-34) discontinued (PTH/v) or switched to compound 1a (PTH/0.3) at 45 days) was “lowered MS/BS, BFR/BS and BFR/TV to OVX levels” and the “BV/TV and trabecular thickness of L-1 vertebra (in words)” value ([3]; PTH (1-34) discontinued or switched to compound 1a at 45 days) was “decreased BV/TV and trabecular thickness to below Sham”. For the same compound, the “dynamic parameters MS/BS, MAR, BFR/BS” value ([3]; continuous treatment) was “increased MS/BS, MAR, BFR/BS and BFR/TV to significantly above Sham and OVX” and the “BV/TV, trabecular thickness, trabecular number of L-1 vertebra (in words)” value (shortened to “BV/TV, trabecular thickness”) ([3]; continuous treatment) was “improved BV/TV and trabecular thickness above OVX”.
With `C#C[C@]1(O)CC[C@H]2[C@@H]3CCc4cc(O)ccc4[C@H]3CC[C@@]21C` [EE2, 17α-ethynyl estradiol] the “volumetric BMD” value [1, 6] was “BMD significantly greater than OVX at termination”, the “spinal BMD or BMC” value [2] was “marginal effects” and the “BFR/BS (bone formation rate)” value [3, 4] was 8.76 ± 1.99^o μ/d × 100. For the same compound, the “BFR/TV (bone formation rate)” value [3, 4] was 32.76 ± 6.9 %/y, the “BV/TV (cancellous bone volume)” value [3, 4] was 21.8 ± 4.1^s % and the “MAR (mineral apposition rate)” value [3, 4] was 0.58 ± .05^s.o μ/d. The “MS/BS (mineralizing surface)” value [3, 4] was 14.97 ± 3.07^o %, the “Tb.N (trabecular number)” value [3, 4] was 6.20 ± .66 #/mm and the “Tb.Sp (trabecular separation)” value [3, 4] was 127.5 ± 17.5 μ. For the same compound, the “Tb.Th (trabecular thickness)” value [3, 4] was 35.3 ± 5.6^s μ, the “BV/TV, trabecular thickness” value ([3]; continuous treatment) was “little effect on BV/TV, trabecular thickness, or trabecular number” and the “MAR of L-1 vertebra (in words)” value ([3]; continuous treatment) was “lowered MAR to below OVX, Sham, and compound 1a”.
With `COc1ccc(-c2sc3cc(O)ccc3c2Oc2ccc(OCCN3CCCCC3)cc2)cc1` [Compound 1a, 6-hydroxy-2-(4-methoxyphenyl)-3-[4-(2-piperidin-1-ylethoxy)phenoxy]-benzo[b]thiophene] the “volumetric BMD” value [1, 6] was “prevented further bone loss and had BMD significantly greater than OVX at termination”, the “spinal BMD or BMC” value [2] was “marginal effects” and the “BFR/BS (bone formation rate)” value [3, 7] was 11.45 ± 1.9 μ/d × 100. The “BFR/TV (bone formation rate)” value [3, 7] was 40.30 ± 11.41 %/y, the “BV/TV (cancellous bone volume)” value [3, 7] was 24.4 ± 5.9^s % and the “MAR (mineral apposition rate)” value [3, 7] was 0.72 ± .06 μ/d. The “MS/BS (mineralizing surface)” value [3, 7] was 15.90 ± 2.21^s.o %, the “Tb.N (trabecular number)” value [3, 7] was 5.77 ± 1.2^s #/mm and the “Tb.Sp (trabecular separation)” value [3, 7] was 137.6 ± 37^s μ. The “Tb.Th (trabecular thickness)” value [3, 7] was 42.4 ± 6 μ, the “BFR/BS (bone formation rate)” value [3, 8] was 9.48 ± 1.43^o μ/d × 100 and the “BFR/TV (bone formation rate)” value [3, 8] was 35.51 ± 9.14 %/y. For the same compound, the “BV/TV (cancellous bone volume)” value [3, 8] was 22.3 ± 3^s %, the “MAR (mineral apposition rate)” value [3, 8] was 0.66 ± .11 μ/d and the “MS/BS (mineralizing surface)” value [3, 8] was 14.47 ± 1.78^o %. The “Tb.N (trabecular number)” value [3, 8] was 6.07 ± .87^s #/mm, the “Tb.Sp (trabecular separation)” value [3, 8] was 131 ± 23^s.o μ and the “Tb.Th (trabecular thickness)” value [3, 8] was 36.8 ± 3^s μ. For the same compound, the “BFR/BS (bone formation rate)” value [3, 9] was 9.44 ± 2.4^o μ/d × 100, the “BFR/TV (bone formation rate)” value [3, 9] was 29.94 ± 8.7 %/y and the “BV/TV (cancellous bone volume)” value [3, 9] was 22.1 ± 5.2^s %. The “MAR (mineral apposition rate)” value [3, 9] was 0.72 ± .08 μ/d, the “MS/BS (mineralizing surface)” value [3, 9] was 13.05 ± 2.44^s % and the “Tb.N (trabecular number)” value [3, 9] was 5.24 ± .82^s #/mm. For the same compound, the “Tb.Sp (trabecular separation)” value [3, 9] was 153.1 ± 35^s μ, the “Tb.Th (trabecular thickness)” value [3, 9] was 42.4 ± 7.3 μ and the “dynamic parameters MS/BS, MAR, BFR/BS” value ([3]; continuous treatment) was “decreased MS/BS and BFR in a dose-dependent manner to Sham and EE2 levels”. For the same compound, the “BV/TV, trabecular thickness” value ([3]; continuous treatment) was “little effect on BV/TV, trabecular thickness, or trabecular number” and the “MAR of L-1 vertebra (in words)” value ([3]; continuous treatment) was “not different from OVX”.

Source: US20020025929A1, “METHOD OF BUILDING AND MAINTAINING BONE” (priority 1997, published 2002)
